The test system of one test is MCF-7 cells. Briefly: Apoptosis of MCF-7 cells transfected with cytosolic Omi-GFP fusion proteins. The test is classed as cell-based. As to conditions: zVAD-FMK 20 μM; MCF-7 cells transfected with M-Omi-GFP. Here is the method:
FIG. 20 provides schematic diagrams of the Omi-GFP and GFP-IETD-Omi constructs used to assay the ability of Omi to induce apoptosis or to enhance apoptosis by other stimuli.
FIG. 21 is a bar graphic representation of the percentages of GFP-positive apoptotic MCF-7 cells 36 hours following transfection with M-Omi-S/A-GFP or pEGFP-N1 alone or M-Omi-GFP together with empty vector or expression construct encoding XIAP, XIAP-BIR3, or caspase-9DN. The cells were also transfected with M-Omi-GFP expression construct in the presence of zVAD-FMK (20 μM).

For the next test, the system named is 293 and MCF-7 cells. The experiment in a line: Caspase-dependent processing of GFP-IETD-Omi at the IETD site in transfected cells (immunoblot). The test is classed as cell-based. The note with it: cytosolic extracts, zVAD-FMK 20 μM. The protocol: FIG. 23 is a scanned image of an immunoblot with Flag-HRP antibody of MCF-7 and 293T cells 24 hours following transfected with pEGFP or M-Omi-Flag, GFP-IETD-AVP (AVP) or GFP-IETD-SSA (SSA) expression constructs in the presence or absence of zVAD-FMK (20μM). M-Omi-Flag is similar to the M-Omi-GFP shown in FIG. 20, except that the GFP tag was replaced with a Flag tag.
(§1) Next, the contribution of the IAP binding activity of Omi to its proapoptotic activity was tested. The MTS of Omi was replaced with a GFP-IETD sequence and mutated at its active site Ser306 to Ala (FIG. 20, GFP-IETD-AVP). Of note, the presence of the IETD sequence between GFP and Omi-S/A allowed caspase-dependent cleavage at the IETD site after the Asp residue and release of mature Omi-S/A in the cytosol of the transfected 293 and MCF-7 cells (FIG. 23). […] Taken together, Omi not only can induce apoptosis through its serine protease activity but also via its ability to bind and neutralize IAPs.
On the technique in general: In western blotting, separated proteins are transferred to a membrane and probed.

In a further test the test system is Jurkat and HL-60 cells. The experiment in a line: Release of Omi, Smac and cytochrome c to the cytosol and procaspase-3 processing (immunoblot of cytosolic extracts). The note with it: staurosporine 2 μM. The test is classed as cell-based, human. Here is the method:
FIG. 13 is a scanned image of a blot representing cytosolic extracts from human Jurkat and HL-60 cells bound to GST-BIR3 and immunoblotted with Omi (top panels), Smac (second panels), Cytochrome c (third panels), or caspase-3 (lower panels) antibodies.
FIG. 14 is a scanned image of a blot representing cytosolic extracts of Jurkat cells treated with TRAIL (1 μg/ml) for the indicated time periods and analyzed by immunoblotting with Omi (top panel), Smac (middle panel), or cytochrome c (bottom panel) antibodies.
To determine whether Omi is released together with Smac and cytochrome c from the mitochondria to the cytoplasm during apoptosis, we treated Jurkat and HL-60 cells with staurosporine (2 μM), which is known to induce the mitochondrial apoptotic pathway, and analyzed their cytosolic extracts by immunoblot analysis. […] Processing of procaspase-3 also followed a similar time course with maximum processing observed at 6-8 hours after treatment. Very little or no Omi or Smac proteins or processing of procaspase-3 were detected in the extracts at zero-time points.

The subject of a further test is Hela cells. Briefly: Immunofluorescence confocal microscopy of Omi in Hela cells. It counts as cell-based, human. As to conditions: staurosporine 1 μM, 5 hours; untreated cells mostly punctate and perinuclear.
A further test has as its target T1, XIAP-BIR3 (Homo sapiens, UniProt P98170).
T1 construct: Omi associates directly with the BIR3 domain of XIAP
Briefly: GST-BIR3 precipitation of extracts of transfected 293T cells. As to conditions: 24 hours after transfection. It counts as binding. The protocol: FIG. 24 is a scanned image of an immunoblot with Flag-HRP antibody of 293T cells extracts precipitated with GST-BIR3 24 hours after transfection with the indicated expression constructs extracts.
as §1

Where a SMILES comes first, the peptide text is derived from it. The star is where a group is joined. Cbz = O=C(OCc1ccccc1)*; CH2F = FC*

T1 sequence (P98170 238-358 limits assumed): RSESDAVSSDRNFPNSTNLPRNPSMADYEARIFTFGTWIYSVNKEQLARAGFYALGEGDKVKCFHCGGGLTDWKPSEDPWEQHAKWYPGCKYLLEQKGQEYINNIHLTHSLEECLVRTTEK

On to `COC(=O)C[C@H](NC(=O)[C@H](C)NC(=O)[C@@H](NC(=O)OCc1ccccc1)C(C)C)C(=O)CF` [zVAD-FMK, reference compound] (Cbz-Val-Ala-Asp(OMe)-CH2F), for which the “block of M-Omi-GFP-induced apoptosis” value in the test on MCF-7 cells is “did not block the ability of M-Omi-GFP to induce apoptosis”. Moreover, in the test with 293 and MCF-7 cells, the “processing at the IETD site” value is listed as “very little or no processing at the IETD site was observed”.
Take `CN[C@@H]1C[C@H]2O[C@@](C)([C@@H]1OC)n1c3ccccc3c3c4c(c5c6ccccc6n2c5c31)C(=O)NC4` [staurosporine]: in the test with Jurkat and HL-60 cells, the “accumulation of cytochrome c, Smac and Omi in the cytosol” value is “accumulated in the cytosol of these cells in a time dependent manner”; the “time of maximum processing of procaspase-3 after treatment” value is 6 to 8 h. Besides, the “immunofluorescence staining pattern of Omi” value in the test with Hela cells is reported as “showed diffused immunofluorescence staining of Omi”.
Turning to “mature Omi-S/A: mature Omi-S/A released in the cytosol by caspase-dependent cleavage of GFP-IETD-AVP at the IETD site”, the “binding to XIAP-BIR3 (GST-BIR3)” value with XIAP-BIR3 was “able to bind the GST-BIR3 fusion protein”.
